Data from ChEMBL document CHEMBL5214944, “Preparation of radiolabeled erlotinib analogues and analysis of the effect of linkers” (Bioorg Med Chem Lett, 2022).

Assays:
[1] = Retention time of the compound by RP-HPLC analysis; type: physicochemical
[2] = system: A-431; experiment: Cytotoxicity against human A-431 cells assessed as inhibition of cell growth at 100 uM incubated for 24 hrs by MTT assay; type: toxicity, cell-based; details: a-431, 24 h
[3] = Cytotoxicity against human A-431 cells assessed as inhibition of cell growth at 100 uM incubated for 72 hrs by MTT assay; type: toxicity, cell-based
[4] = Octanol/water partition coefficient, logP of compound by gamma counter analysis; type: physicochemical
[5] = Biodistribution in Swiss mouse assessed as accumulation at radioactivity in liver at 3 MBq, iv and measured 1 hr post injection by gamma counter method; type: ADME, organism-based; details: in vivo
[6] = Cytotoxicity against human A-431 cells assessed as inhibition of cell growth at 50 uM incubated for 24 hrs by MTT assay; type: toxicity, cell-based; details: read-out: Activity

Compound | Retention_time [1] [min] | Activity [2] | inhibition at 72 h, 100 µM [3] [%] | further results
COCCOc1cc2ncnc(Nc3cccc(-c4cn(CCOCCOCCOCCOCCOCCOCCN)nn4)c3)c2cc1OCCOC | 17.4 | – | – | –
COCCOc1cc2ncnc(Nc3cccc(-c4cn(CCOCCOCCOCCOCCOCCOCCNC(=S)Nc5ccc(CC6CN(CC(=O)O)CCN(CC(=O)O)CCN(CC(=O)O)CCN6CC(=O)O)cc5)nn4)c3)c2cc1OCCOC (stereo not drawn) | 18.5 | Toxic | 90.9 | –
COCCOc1cc2ncnc(Nc3cccc(-c4cn(CCOCCOCCOCCNC(=S)Nc5ccc(CC6CN(CC(=O)O)CCN(CC(=O)O)CCN(CC(=O)O)CCN6CC(=O)O)cc5)nn4)c3)c2cc1OCCOC (stereo not drawn) | 17.2 | Toxic | 92.6 | –
COCCOc1cc2ncnc(Nc3cccc(-c4cn(CCCNC(=S)Nc5ccc(CC6CN(CC(=O)O)CCN(CC(=O)O)CCN(CC(=O)O)CCN6CC(=O)O)cc5)nn4)c3)c2cc1OCCOC (stereo not drawn) | 15.9 | Non-Toxic | 91.3 | –
C#Cc1cccc(Nc2ncnc3cc(OCCOC)c(OCCO[11CH3])cc23)c1 | – | – | – | logP [4]: 3.2; Drug uptake [5]: 10.55 % ID/g
COCCOc1cc2ncnc(Nc3cccc(-c4cn(CCOCCOCCOCCN)nn4)c3)c2cc1OCCOC | 15.9 | – | – | –
COCCOc1cc2ncnc(Nc3cccc(-c4cn(CCCN)nn4)c3)c2cc1OCCOC | 13.5 | – | – | –
COCCOc1cc2ncnc(Nc3cccc(-c4cn(CC[18F])nn4)c3)c2cc1OCCOC | – | – | – | logP [4]: 2.36; Drug uptake [5]: 17.1 % ID/g
C#Cc1cccc(Nc2ncnc3cc(OCCOC)c(OCCOC)cc23)c1 [ERLOTINIB] | – | – | 92.7 | inhibition at 24 h, 50 µM [6]: 29.8%
